Measurements as given in BindingDB's records for doi:10.1021/jm00098a013 (Duquesne University, 1992).

Experiment: Compound was evaluated for the inhibition of Aminoimidazole carboxamide ribonucleotide formyl transferase (AICAR) with (6R) tetrahydrofolate as substrate

IC50: > 95 µM
SMILES: Cc1c2cnc3nc(N)[nH]c(=O)c3c2c(C)n1C
